# Data from US8710097B2, “Flavonoid dimers and methods of making and using such” (The Hong Kong Polytechnic University, priority 2006, dated 2014).
# Where two headings read alike, the source gives them in different places.
# Tests used:
# [1] = tested on: MDA435/LCC6 MDR cells; assay: cells; details: for IC50: Homo sapiens; for RF (relative fold): LCC6 MDR, drug alone (reference)
# Method: (§1) MDA435/LCC6 and P388 (both parent and MDR subtype) were maintained in DMEM and RPMI 1640 culture medium supplemented with 10% FBS, respectively. RPMI 1640 media also contained 100 units/ml penicillin and 100 μg/ml streptomycin. Cells were cultured at 37° C. in a humidified atmosphere with 5% CO2. A solution of 0.05% trypsin-EDTA was used to detach the MDA435/LCC6 (both wild type and MDR subtype) cells.
# (§2) Cell proliferation assay. MDA435/LCC6 and P388 (both parent and MDR subtype) cells were seeded at 2000 and 5000 cells per well, respectively, in 96-well plates. Varying concentrations of anticancer drugs (Doxorubicin, Daunorubicin, Vincristine, Vinblastine, taxol, Mitoxantrone) with or without the flavonoid dimers were added in a final volume of 200 μl and cells were grown for 4 and 3 days for MDA435/LCC6 and P388 (both parent and MDR subtype) cells, respectively. For MDA435/LCC6 (both parent and MDR subtype), the corresponding drugs were added after cell attachment (24 hr incubation). To measure cell proliferation, the cell Titer 960 Aqueous Assay (Promega) was used according to the manufacturer's instructions. Briefly, MTS (2 mg/ml) and PMS (0.92 mg/ml) were mixed in a ratio of 20:1. 30 μl MTS/PMS mixture was added into each well and incubated for 2 hours at 37° C. Optical absorbance at 490 nm was then recorded using an ELISA microtiter plate reader (Bio-Rad). Each experiment was done at least in triplicate and repeated twice. Cytotoxicity of the anticancer drugs was expressed as the fraction of the cells survived relative to the untreated DMSO (0.05%) solvent controls.
# MDA435/LCC6 is an estrogen-independent human breast cancer cell line. Its MDR subtype (MDA435/LCC6 MDR) was generated by transducing a retroviral vector directing the constitutive expression of the human MDR1 cDNA, producing a cell line with a classical MDR1 resistance pattern (MDA435/LCC6 and MDA435/LCC6MDR1: ascites models of human breast cancer. Br J Cancer 1996, 73, 154-161). The ability of the apigenin dimers of this invention to reverse taxol resistance in MDA435/LCC6 MDR cells were tested. […] Apigenin monomers 10a and 10b at 10 μM were used as the negative controls.
# [2] = tested on: P388/ADR cells; assay: Doxorubicin accumulation; type: cell-based, murine; details: monomer 10b at double concentration of the dimers, FIG. 11A
# Method: For P388 (both parent and MDR subtype) cells, 1 ml (10^5 cells) confluent cells were aliquot into Eppendorf tube and pre-incubated with flavone dimers for 30 min at 37° C. Doxorubicin (final concentration of 10 μM) was then added and incubated for 2 h at 37° C. at a final concentration of 10 μM. The cell pellets were washed 3 times with cold PBS by using an Eppendorf micro-centrifuge and lysed with 0.3N HCL in 50% ethanol, and sonicated for 30s. After centrifugation at 10000 rpm/min for 3 min, the supernatant was saved. The fluorescence of doxorubicin was measured using a spectrofluorometer (λexcite=470 nm, λemit=585 nm).
# [3] = tested on: pentamidine-resistant L. enriettii LePentR50 promastigotes; assay: microbe, parasite or virus in culture; details: Leishmania enriettii, 72 h, read-out: IC50(μM) of synthetic flavonoid, LePentR50, cytotoxicity of compound alone; 72 hrs
# Method: (§3) Cell lines and Cell Culture. Promastigotes of Leishmania enriettii (LePentR50, Le wild type, LeMDR1 −/− and LeMDR1-overexpressed LeV160 mutants) and Leishmania donovani (LdAG83, Ld2001 and Ld39) were employed in this study. The former is a natural infective strain of guinea pig and the latter is a clinical strain, which may cause visceral leishmaniasis in human. Both strains were cultured in Schneider's Drosophila Medium (Invitrogen), pH 6.9 supplemented with 10% (v/v) heat inactivated fetal calf serum (Hyclone) with 4 mM glutamine (Sigma) and 25 μg/mL gentamicin solution (Invitrogen), at 27° C. for 4 days (Cloning and functional analysis of an extrachromosomally amplified multidrug resistance-like gene in Leishmania enriettii. Mol. Biochem. Parasitol 1993, 60, 195-208).
# Promastigotes of LeV160 were culture in the presence of 160 μg/mL vinblastine. No pentamidine and vinblastine (Sigma) was added to the Le wild type and LeMDR1 −/− mutant.
# (§4) The viability of promastigotes was determined by the Cell Titer 96® Aqueous Assay (Promega) that employs a tetrazolium compound (MTS) and electron coupling reagent, phenazine methosulfate (PMS). Promastigotes were seeded into 96-well flat bottom microtiter plate at 1×10^5 cells per well in a final volume of 100 μL medium. To determine the cytotoxic effects of flavonoid dimers to the parasites, various concentrations of flavonoid dimers were added to the promastigotes. To determine the reversal effects of flavonoid dimers with different spacer lengths, various concentrations of antileishmanial drugs, one of pentamidine or SSG, vinblastine and puromycin was added to the wells with or without flavonoid dimers. The parasites were incubated at 27° C. for 72 hrs. Each concentration of antileishmanials with or without the flavonoid dimers was tested in triplicates in each experiment. A 2 mg/mL MTS and 0.92 mg/mL PMS were mixed at a ratio of 20:1 (MTS: PMS). After 72-hr incubation, 10 μL of MTS:PMS mixture was added into each well of microtiter plate. The plate was then incubated at 27° C. for 4 hrs for color development. After 4 hrs of incubation, the OD values were determined at 490 nm using automatic microtiter plate reader (Bio-Rad).
# [4] = tested on: wild type L. donovani LdAG83 promastigotes; assay: Leishmania cell viability (MTS) assay; type: cell-based, Leishmania donovani; details: Leishmania donovani, 72 h, read-out: IC50(μM) of synthetic flavonoid, LdAG83
# Method: as §3, with “195-208). […]” for “195-208).”
# as §4
# [5] = tested on: SSG-resistant L. donovani Ld39 promastigotes; assay: microbe, parasite or virus in culture; type: cell-based, Leishmania donovani; details: for IC50: Leishmania donovani, 72 h, read-out: IC50(μM) of synthetic flavonoid, Ld39
# Method: as §3, with “195-208). […]” for “195-208).”
# as §4
# [6] = tested on: LeMDR1 knockout (LeMDR1 −/−) L. enriettii; assay: Leishmania cell viability (MTS) assay; type: cell-based, Leishmania enriettii; details: LeMDR1 −/−
# From the text: (§5) Cell lines and Cell Culture.
# [7] = tested on: MDA435/LCC6 cells; assay: Cell proliferation (MTS) assay, parental sensitive cells; type: cell-based; details: Homo sapiens, read-out: IC50 (nM) of anticancer drug alone
# From the text: (§6) Cell proliferation assay.
# [8] = tested on: P388/ADR cells; assay: cells; details: P388/ADR; for IC50: Mus musculus; for RF (relative fold): drug alone (reference)
# Method: as §1, §2
# [9] = tested on: P388 cells; assay: Cell proliferation (MTS) assay, parental sensitive cells; type: cell-based, murine; details: Mus musculus
# From the text: as §6
# [10] = tested on: LeMDR1 overexpressed L. enriettii (LeV160); assay: Leishmania cell viability (MTS) assay; type: cell-based, Leishmania enriettii; details: Leishmania enriettii
# From the text: as §5
# [11] = MDA435/LCC6 MDR, 5 μM dimer, FIG. 5
# [12] = 96 h, read-out: IC50 (nM) of anticancer drug alone, LCC6 MDR, drug alone, no modulator
# [13] = read-out: IC50 (nM) of anticancer drug alone
# [14] = read-out: IC50 of anticancer drug alone
# [15] = P388, drug alone, read-out: IC50 (nM) of anticancer drug alone
"IC50 [8, 13] [nM]",SMILES,"IC50 [1, 12] [nM]",RF (relative fold) [1],RF (relative fold) [8],"IC50 ([7]; LCC6, drug alone) [nM]","IC50 [9, 15] [nM]",further results
,"O=c1cc(-c2ccc(OCCOCCOc3ccc(-c4cc(=O)c5c(O)cc(O)cc5o4)cc3)cc2)oc2cc(O)cc(O)c12 [Compound 9b, 1,7-Bis[4′-((5,7-dihydroxy)-4H-chromen-4-on-2-yl)phenyl]-1,4,7-trioxaheptane]",,,,,,"IC60 of doxorubicin with modulator [1, 11]: 1.3 µM; reduction of IC60 of doxorubicin, RF [1, 11]: ~3.1 RF; activity on doxorubicin accumulation [2]: comparable activity to 9d; IC50 [3]: > 200 µM; IC50 [4]: > 200 µM; SSG resistance modulating activity ([5]; Ld39, dimers at 6 μM, FIG. 14B): did not show substantial SSG resistance modulating activity; IC50 [5]: > 200 µM; pentamidine sensitization [6]: 2.0 fold"
,"O=c1cc(-c2ccc(OCCOCCOCCOCCOCCOCCOCCOCCOc3ccc(-c4cc(=O)c5c(O)cc(O)cc5o4)cc3)cc2)oc2cc(O)cc(O)c12 [Compound 9h, 1,25-Bis[4′-((5,7-dihydroxy)-4H-chromen-4-on-2-yl)phenyl]-1,4,7,10,13,16,19,22,25-nonaoxapentacosane]",,,,,,"doxorubicin sensitization ([1]; MDA435/LCC6 MDR, dimers): very little or no doxorubicin sensitization; reversing effect on taxol resistance ([1]; MDA435/LCC6 MDR, dimers at 5 μM): little or no reversing effect; IC50 [4]: 12 ± 0.2 µM; IC50 [5]: 14 ± 0.1 µM; pentamidine sensitization [6]: 2.3 fold"
1740,COc1cccc2c1C(=O)c1c(O)c3c(c(O)c1C2=O)C[C@@](O)(C(=O)CO)C[C@@H]3O[C@H]1C[C@H](N)[C@H](O)[C@H](C)O1 [Doxorubicin],4690,1,1,300,22,"IC60 of doxorubicin alone ([1]; MDA435/LCC6 MDR, no modulator, FIG. 5): 4.7 µM; IC50 [8, 14]: 1500 nM"
1640,"CC(=O)O[C@H]1C(=O)[C@@]2(C)[C@H]([C@H](OC(=O)c3ccccc3)[C@]3(O)C[C@H](OC(=O)[C@H](O)[C@@H](NC(=O)c4ccccc4)c4ccccc4)C(C)=C1C3(C)C)[C@]1(OC(C)=O)CO[C@@H]1C[C@@H]2O [Taxol, paclitaxel]",115,1,1,2.9,22,"IC50 ([1]; read-out: Mean IC50 of taxol (nM), LCC6MDR, no analog added (control)): 128 nM"
,CC[C@]1(O)C[C@@H]2CN(CCc3c([nH]c4ccccc34)[C@@](C(=O)OC)(c3cc4c(cc3OC)N(C)[C@H]3[C@@](O)(C(=O)OC)[C@H](OC(C)=O)[C@]5(CC)C=CCN6CC[C@]43[C@@H]65)C2)C1 [Vinblastine],4.8,1,1,0.34,4.1,"IC50 ([8]; 72 h, read-out: IC50 (nM) of anticancer drug alone): 95 nM; IC50 ([10]; read-out: IC50 of vinblastine (μg/ml), no modulator): 167 ± 3.6 µg/mL"
299,CC[C@]1(O)C[C@H]2CN(CCc3c([nH]c4ccccc34)[C@@](C(=O)OC)(c3cc4c(cc3OC)N(C=O)[C@H]3[C@@](O)(C(=O)OC)[C@H](OC(C)=O)[C@]5(CC)C=CCN6CC[C@]43[C@@H]65)C2)C1 [Vincristine],26,1,1,0.29,2.2,
,COc1ccc(C[C@H](N)C(=O)N[C@H]2[C@@H](O)[C@H](n3cnc4c(N(C)C)ncnc43)O[C@@H]2CO)cc1 [puromycin],,,,,,"IC50 ([10]; read-out: IC50 of puromycin (μg/ml), no modulator): 16 ± 1 µg/mL"

SMILES,"IC50 [8, 13] [nM]","IC50 [1, 12] [nM]",RF (relative fold) [1],RF (relative fold) [8],"IC50 ([7]; LCC6, drug alone) [nM]","IC50 [9, 15] [nM]",further results
COc1cccc2c1C(=O)c1c(O)c3c(c(O)c1C2=O)C[C@@](O)(C(C)=O)C[C@@H]3O[C@H]1C[C@H](N)[C@H](O)[C@H](C)O1 [Daunorubicin],2110,977,1,1,,,"IC50 [7]: 79 nM; IC50 [8, 14]: 2100 nM; IC50 ([9]; P388, read-out: IC50 (nM) of anticancer drug alone): 25 nM"
O=C1c2c(O)ccc(O)c2C(=O)c2c(NCCNCCO)ccc(NCCNCCO)c21 [Mitoxantrone],395,1440,1,1,0.35,4.3,
